The record followed here is patent US10729672B2 (Wyeth LLC, priority 2005, dated 2020).

Holding throughout (type): cell-based
Experiment [1] relates to BT474 [HER-2+ (amplified); ATCC HTB-20] cells. Kind of experiment: SRB cell survival / growth inhibition, BT474 cells. As to the method: (§1) The combination was tested in three breast cancer cell lines of differing genotypes.
(§2) Cells from each of these cell lines were incubated in the presence of a range of concentrations ([…]) for each drug. […] Compound dilutions were prepared in the same medium, at 2× final concentration, and 100 μl of the drug dilution was added to the cell-containing wells.
(§3) Serial dilutions of one compound were prepared in the presence of a fixed dose of a second compound. Alternatively, a checkerboard dilution series was employed. Cells were cultured for three days in the presence of the drugs. Untreated cells were included as controls. The percentage of surviving cells was determined using sulforhodamine B (SRB, Sigma-Aldrich, St Louis, Mo.), a protein binding dye. Cellular protein was precipitated in each well by the addition of 50 μl 50% cold trichloroacetic acid. After 1 hour, the plates were washed extensively in water and dried. SRB dye reagent (0.4% SRB in 1% acetic acid, 80 μl per well) was added and plates were kept at room temperature for ten minutes. […] Cell-associated dye was dissolved in 10 mM Tris (150 μl) and the absorbance was read at 540 nm in a microtiter plate reader. The concentration of compound that caused a fixed percentage inhibition of growth was determined by plotting cell survival (relative to untreated cells) against the compound dose.

Experiment [2] relates to MDA-MB-361 [HER-2+ (non-amplified); adenocarcinoma; ATCC HTB 27] cells. The experiment can be described thus: SRB cell survival / growth inhibition, MDA-MB-361 cells. The settings on record: MDA-MB-361, lower levels of HER-2 without amplification. The protocol: as §1, §2, §3
The subject of experiment [3] is MCF-7 [HER-2−, EGFR−; adenocarcinoma; ATCC HTB22] cells. Kind of experiment: SRB cell survival / growth inhibition, MCF-7 cells. The conditions noted are these: MCF-7, no HER-2. As to the method:
as §1, §2, §3

Structures are written as SMILES.

As to `CCOc1cc2ncc(C#N)c(Nc3ccc(OCc4ccccn4)c(Cl)c3)c2cc1NC(=O)/C=C/CN(C)C` [HKI-272, (E)-N-{4-[3-chloro-4-(2-pyridinylmethoxy)anilino]-3-cyano-7-ethoxy-6-quinolinyl}-4-(dimethylamino)-2-butenamide], the “sensitivity of the cell line to the single agent” value in experiment [1] is given as “highly sensitive”; in experiment [2] it was “less sensitive”; in experiment [3], “resistant”.
